Data on 15 molecules can be found in PubChem BioAssay (NCI).

Test systems include COLO 205 colon; EKVX NSCLC; HCT-116 colon; M14 melanoma; OVCAR-3 ovarian; OVCAR-8 ovarian; SN12C renal; SR leukemia; NCI-H522 lung.
Holding throughout (experiment): NCI anticancer screen, dose series, 48 h

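Grown in 96-well plates, cells were treated for 48 hours with each compound at five concentrations. Insufficient inhibition: endpoint recorded as highest concentration tested. Here, GI50 denotes the concentration required for 50% inhibition of growth. TGI: concentration producing complete growth inhibition.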

In the case of `CCOC(=O)C(C)(C)Oc1ccc2c(-c3ccc(Cl)cc3)c(-c3ccc(Cl)cc3)c(=O)oc2c1`, the TGI with COLO 205 colon, in the assay with EKVX NSCLC, in the assay on HCT-116 colon, with M14 melanoma, in the assay with OVCAR-3 ovarian and with OVCAR-8 ovarian was greater than 100 µM throughout. The TGI in the assay on SN12C renal and in the assay on SR leukemia was greater than 100 µM in each case.
As for `OCC(O)C(O)C(O)c1nn(-c2ccccc2)c2nc3cc(Cl)c(Cl)cc3nc12` (centres undefined), the TGI in the assay on COLO 205 colon was greater than 100 µM; with EKVX NSCLC it was greater than 100 µM; in the assay with HCT-116 colon, greater than 100 µM; in the assay with M14 melanoma it was 41.1 µM; with NCI-H522 lung, greater than 100 µM; in the assay on OVCAR-3 ovarian, greater than 100 µM. The TGI in the assay on OVCAR-8 ovarian, in the assay with SN12C renal and with SR leukemia was greater than 100 µM in each case.
For `CS(=O)(=O)N(CCC#N)c1ccc(C=O)cc1`, the TGI in the assay on EKVX NSCLC, with HCT-116 colon, in the assay with M14 melanoma, in the assay on NCI-H522 lung, in the assay on OVCAR-3 ovarian and in the assay with OVCAR-8 ovarian was greater than 100 µM in each case. The TGI in the assay on SN12C renal and in the assay with SR leukemia was greater than 100 µM throughout.
As to `O=C(NC1C2CC3CC(C2)CC1C3)/C(Cl)=C1/Sc2ccccc2NC1=O` (centres undefined), the TGI in the assay on COLO 205 colon, in the assay with EKVX NSCLC, in the assay with HCT-116 colon, with M14 melanoma, with NCI-H522 lung and in the assay on OVCAR-3 ovarian was greater than 100 µM in each case. Besides, the TGI with OVCAR-8 ovarian, in the assay on SN12C renal and in the assay on SR leukemia was greater than 100 µM in each case.
`CC1CCCc2c1c1ccc3c(O)cccc3c1oc2=O` (centres undefined): the TGI is greater than 100 µM in the assay with COLO 205 colon; 85.9 µM with EKVX NSCLC; greater than 100 µM in the assay with HCT-116 colon; greater than 100 µM with M14 melanoma; 55.8 µM in the assay on NCI-H522 lung; greater than 100 µM with OVCAR-3 ovarian. In addition, the TGI in the assay on OVCAR-8 ovarian, in the assay on SN12C renal and in the assay on SR leukemia was greater than 100 µM each time.
Turning to `O=c1cccccc1[O-].O=c1cccccc1[O-].O=c1cccccc1[O-].[Ce+3]`, the TGI is greater than 100 µM in the assay with EKVX NSCLC; 54.3 µM in the assay on HCT-116 colon; greater than 100 µM with M14 melanoma; 44.1 µM in the assay with NCI-H522 lung; 35.5 µM in the assay with OVCAR-3 ovarian; 73.6 µM in the assay with OVCAR-8 ovarian. This molecule also gave a TGI in the assay on SN12C renal greater than 100 µM. In addition, the GI50 with SN12C renal is 25.7 µM.
For the molecule `COc1ccc2c(CCNC(=O)/C=C/c3ccccc3)c(C(C)=O)[nH]c2c1[N+](=O)[O-]`, the TGI in the assay on COLO 205 colon is greater than 100 µM; in the assay with HCT-116 colon, 87.2 µM; in the assay with M14 melanoma, greater than 100 µM; in the assay on NCI-H522 lung, 18.9 µM; in the assay on OVCAR-3 ovarian, greater than 100 µM; in the assay on OVCAR-8 ovarian it was greater than 100 µM. Further, the TGI with SN12C renal and with SR leukemia was greater than 100 µM throughout.
Regarding `CCOC(=O)N1C(c2ccccc2)C=CC(c2ccccc2)N1C(=O)OCC` (centres undefined), the TGI with COLO 205 colon, with EKVX NSCLC, in the assay with HCT-116 colon, in the assay with OVCAR-3 ovarian, in the assay on OVCAR-8 ovarian and in the assay with SN12C renal was greater than 100 µM each time. Besides, the TGI in the assay with SR leukemia is greater than 100 µM.
As for `Cc1ccccc1C(=O)Oc1ccc(OCc2ccccc2)cc1`, the TGI with COLO 205 colon, in the assay on EKVX NSCLC, in the assay with HCT-116 colon, with M14 melanoma, in the assay on OVCAR-3 ovarian and in the assay on OVCAR-8 ovarian was greater than 100 µM throughout. Moreover, the TGI is greater than 100 µM with SN12C renal and 68 µM with SR leukemia.
As for `Cn1c(=O)c(C(=O)NC(=O)NCCCCCOC(=O)CCCCCCCCCCC(=O)OCCCCCNC(=O)NC(=O)c2cn(Cc3ccccc3)c(=O)n(C)c2=O)cn(Cc2ccccc2)c1=O`, the TGI in the assay on COLO 205 colon, with EKVX NSCLC, in the assay with HCT-116 colon, in the assay on M14 melanoma, in the assay on NCI-H522 lung and in the assay on OVCAR-3 ovarian was greater than 100 µM in each case. Further, the TGI in the assay with OVCAR-8 ovarian and in the assay with SN12C renal was greater than 100 µM in each case.
For `Cn1ccnc1CCc1ccc(Cl)c(Cl)c1`, the TGI in the assay on COLO 205 colon, in the assay on HCT-116 colon, with M14 melanoma, in the assay with NCI-H522 lung, in the assay on OVCAR-3 ovarian and in the assay with OVCAR-8 ovarian was greater than 100 µM throughout. The TGI with SN12C renal and in the assay with SR leukemia was greater than 100 µM each time.
As for `Cc1ccc(C=NC23CC4CC(CC(C4)C2)C3)cc1`, the TGI with COLO 205 colon, in the assay with EKVX NSCLC, with HCT-116 colon, with M14 melanoma, with OVCAR-3 ovarian and in the assay on OVCAR-8 ovarian was greater than 100 µM throughout. Further, the TGI in the assay on SN12C renal and in the assay on SR leukemia was greater than 100 µM throughout.
With `CC(=O)[O-].[Zn].c1ccc(/C(=N\Nc2ccccn2)c2ccccn2)cc1`, the GI50 in the assay with EKVX NSCLC was 0.0465 µM; with M14 melanoma, 0.0468 µM; with NCI-H522 lung, 0.131 µM; in the assay on OVCAR-8 ovarian, 0.0708 µM; in the assay on SN12C renal it was 0.363 µM. The TGI turned out to be 2.84 µM in the assay with EKVX NSCLC; 1.26 µM in the assay on HCT-116 colon; 1.43 µM in the assay with M14 melanoma; 2.06 µM in the assay with NCI-H522 lung; 2.4 µM in the assay on OVCAR-8 ovarian; 10.9 µM with SN12C renal.
`NCc1c(C(N)=O)ncn1Cc1ccccc1`: the TGI in the assay on COLO 205 colon, in the assay with EKVX NSCLC, in the assay with HCT-116 colon, in the assay on M14 melanoma, in the assay with OVCAR-3 ovarian and in the assay on OVCAR-8 ovarian was greater than 100 µM throughout. In addition, in the assay with SN12C renal, the TGI was greater than 100 µM.
Take `C=C1CCCC2[C@](C)(CC3=C(O)C(=O)C=C(OC)C3=O)[C@@H](C)CC[C@]12C` (some centres undefined): the TGI is 21.2 µM in the assay on COLO 205 colon; greater than 100 µM in the assay with EKVX NSCLC; 17.7 µM with HCT-116 colon; 5.03 µM with M14 melanoma; 28.5 µM in the assay with NCI-H522 lung; 31.3 µM in the assay with OVCAR-3 ovarian. For the same molecule, the TGI in the assay with OVCAR-8 ovarian and with SN12C renal was greater than 100 µM each time.
